Measured values from the supplement of paper PMC11061612.

Assays:
[1] = tested on: COR-L95 (Small Cell Lung Carcinoma); assay: Bliss excess, mean over the matrix (fraction); higher = more synergy
Method in brief: (§1)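 Cell lines grown in DMEM/F12 or RPMI with 10% FBS were plated in 1536-well plates and held 24 hours at 37°C, 5% CO2 before 72 hours of exposure to two-drug dose matrices, with DMSO typically at 0.2%. CellTiter-Glo 2.0 luminescence gave viability, which was converted to inhibition. Vehicle wells were set to 0 and blank wells to 1. Combination Emax is the second-highest inhibition in the matrix, and Bliss excess is the observed combination effect minus the expected EA + EB − EA·EB, where EA and EB are the single-agent effects.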

[2] = tested on: DOV13 (Ovarian Carcinoma); assay: as above
Method in brief: as §1

DSH1 (Bladder Carcinoma) = assay: as above
Method in brief: as §1

[3] = tested on: HT-29 (Colorectal Carcinoma); assay: as above
Method in brief: as §1

[4] = tested on: IHH-4 (Thyroid Gland Carcinoma); assay: as above
Method in brief: as §1

[5] = tested on: KATOIII (Gastric Carcinoma); assay: as above
Method in brief: as §1

[6] = tested on: LS-513 (Colorectal Carcinoma); assay: as above
Method in brief: as §1

NCI-H2595 (Mesothelioma) = assay: as above
Method in brief: as §1

[7] = tested on: OCI-AML2 (Acute Myeloid Leukemia); assay: as above
Method in brief: as §1

SK-N-FI (Neuroblastoma) = assay: as above
Method in brief: as §1

SN12C (Kidney Carcinoma) = assay: as above
Method in brief: as §1

[8] = tested on: SW1088 (Low Grade Glioma); assay: as above
Method in brief: as §1

[9] = tested on: SW1783 (Low Grade Glioma); assay: as above
Method in brief: as §1

[10] = tested on: G-292-Clone-A141B1 (Osteosarcoma); assay: combination Emax (second highest fraction inhibited in the dose matrix, 72 h); higher = more inhibition; extreme values may be limits of the assay
Method in brief: as §1

[11] = tested on: KARPAS-1106P (B-Cell Non-Hodgkin's Lymphoma); assay: as above
Method in brief: as §1

[12] = tested on: LS-513 (Colorectal Carcinoma); assay: as above
Method in brief: as §1

[13] = tested on: MDA-MB-157 (Breast Carcinoma); assay: as above
Method in brief: as §1

[14] = tested on: NCI-H211 (Small Cell Lung Carcinoma); assay: as above
Method in brief: as §1

[15] = tested on: OCI-AML2 (Acute Myeloid Leukemia); assay: as above
Method in brief: as §1

[16] = tested on: U-266 (Plasma Cell Myeloma); assay: as above
Method in brief: as §1
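Throughout, for Bliss excess, mean over the matrix: after 72 h of two-drug dosing.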

SMILES | Bliss excess [1] | Bliss excess [2] | Bliss excess (DSH1 (Bladder Carcinoma)) | Bliss excess [3] | Bliss excess [4] | Bliss excess [5] | Bliss excess [6] | Bliss excess (NCI-H2595 (Mesothelioma)) | Bliss excess [7] | Bliss excess (SK-N-FI (Neuroblastoma)) | Bliss excess (SN12C (Kidney Carcinoma)) | Bliss excess [8] | Bliss excess [9] | combination Emax [10] | combination Emax [11] | combination Emax [12] | combination Emax [13] | combination Emax [14] | combination Emax [15] | combination Emax [16]
O=C(c1cc(Cc2n[nH]c(=O)c3ccccc23)ccc1F)N1CCN(C(=O)C2CC2)CC1 [Olaparib] + COc1nnc2ccc(N3CCC(c4ccc(OCCN5CCN(C)C(=O)[C@H]5C)cc4)CC3)nn12 [AZD5153] (first compound max 10 µM, 7x7, partner max 1 µM) | -0.0488 | -0.0778 | -0.0925 | -0.0406 | -0.0058 | -0.0584 | -0.0628 | -0.12 | -0.02 | -0.0577 | -0.0222 | -0.0563 | -0.0177 | 0.224 | 0.791 | 0.591 | 0.438 | 0.992 | 0.983 | 0.291
O=C(c1cc(Cc2n[nH]c(=O)c3ccccc23)ccc1F)N1CCN(C(=O)C2CC2)CC1 [Olaparib] + Cc1c2c(nn1C)CSCc1cc(n(C)n1)CSc1cc(c3ccccc3c1)OCCCc1c(C(=O)O)n(C)c3c-2c(Cl)ccc13 [AZD5991] (first compound max 10 µM, 7x7, partner max 1 µM) | -0.0514 | -0.0158 | -0.0097 | -0.0333 | -0.0093 | -0.0852 | -0.0082 | -0.0396 | 0.0775 | -0.0321 | -0.053 | -0.0383 | -0.0388 | 0.109 | 0.919 | 0.204 | 0.655 | 0.957 | 0.953 | 0.846
N#Cc1cnc(Nc2cc(NC[C@H]3CNCCO3)c(C(F)(F)F)cn2)cn1 [SRA737] + C=CCn1c(=O)c2cnc(Nc3ccc(N4CCN(C)CC4)cc3)nc2n1-c1cccc(C(C)(C)O)n1 [AZD1775] (first compound max 10 µM, partner max 1 µM) | 0.0077 | 0.132 | -0.0441 | 0.0394 | 0.14 | -0.0327 | 0.0476 | -0.0688 | 0.071 | 0.0703 | -0.0184 | 0.0681 | 0.0153 | 0.239 | 0.913 | 0.84 | 0.955 | 0.971 | 1 | 0.599
N#Cc1cnc(Nc2cc(NC[C@H]3CNCCO3)c(C(F)(F)F)cn2)cn1 [SRA737] + CCc1c2c(nc3ccc(O)cc13)-c1cc3c(c(=O)n1C2)COC(=O)[C@]3(O)CC [SN-38] (first compound max 10 µM, 7x7, partner max 0.3 µM) | -0.0191 | -0.0469 | -0.0809 | 0.0196 | -0.0117 | -0.0046 | -0.114 | -0.0762 | -0.0348 | -0.121 | -0.0485 | -0.0339 | -0.038 | 0.41 | 0.902 | 0.742 | 0.955 | 0.987 | 1 | 0.576
N#Cc1cnc(Nc2cc(NC[C@H]3CNCCO3)c(C(F)(F)F)cn2)cn1 [SRA737] + O=c1[nH]cc(F)c(=O)[nH]1 [5-Fluorouracil] (first compound max 10 µM, 7x7, partner max 20 µM) | -0.0218 | 0.0258 | 0.0051 | 0.021 | 0.098 | -0.0805 | -0.0287 | -0.0448 | 0.0247 | -0.0627 | -0.0474 | 0.0081 | 0.0143 | 0.121 | 0.881 | 0.644 | 0.926 | 0.8 | 1 | 0.633
Cc1nc(-c2cn3c(n2)-c2ccc(-c4cnn(C(C)(C)C(N)=O)c4)cc2OCC3)n(C(C)C)n1 [Taselisib] + O=C(Nc1ccc2[nH]nc(-c3ccncc3)c2c1)[C@@H]1CCN(CC(=O)N2CCN(c3ccc(-c4ncccn4)cc3)CC2)C1 [SCH772984] (first compound max 10 µM, 7x7, partner max 5 µM) | -0.0479 | 0.0568 | 0.0051 | 0.111 | 0.0056 | -0.0189 | -0.0377 | -0.0324 | 0.132 | 0.0465 | 0.0003 | -0.0867 | -0.0071 | 0.945 | 0.78 | 0.975 | 0.418 | 0.55 | 1 | 0.787
CC1(C)CCC(CN2CCN(c3ccc(C(=O)NS(=O)(=O)c4ccc(NCC5CCOCC5)c([N+](=O)[O-])c4)c(Oc4cnc5[nH]ccc5c4)c3)CC2)=C(c2ccc(Cl)cc2)C1 [Venetoclax] + CS(=O)(=O)CCNCc1ccc(-c2ccc3ncnc(Nc4ccc(OCc5cccc(F)c5)c(Cl)c4)c3c2)o1 [Lapatinib] (first compound max 1 µM, 7x7, partner max 10 µM) | -0.0566 | -0.0228 | -0.021 | -0.0493 | -0.0082 | -0.0386 | -0.0203 | -0.0574 | 0.0327 | -0.0126 | -0.0179 | -0.0313 | -0.0232 | 0.113 | 0.419 | 0.615 | 0.172 | 1 | 1 | 0.254
